Nine compounds from patent US20160122340A1, “HISTONE DEACETYLASE INHIBITORS BASED ON DERIVATIVES OF TRICYCLIC POLYHYDROACRIDINE AND ANALOGS POSSESSING FUSED SATURATED FIVE-AND-SEVEN-MEMBERED RINGS” (QUIMATRYX, S.L., priority 2013, published 2016) can be followed below.

A value given as a limit tells only on which side of the number the result lay.

Assay [1] relates to T1, Nuclear Extract from HeLa Cells.
T1 construct: 25 ng/μl Nuclear Extract from HeLa Cells: Prepared by high salt extraction of HeLa nuclei (human cervical cancer cell line)
Briefly: HeLa nuclear extract HDAC activity inhibition. It counts as biochemical, human. As for the experimental part:
(§1) In Vitro Inhibitory Activity of Histone Deacetylase: Human Isoforms HDAC1, 2, 3, 4, 5, 6, 7, 8, 9, 10 and 11 and HeLa Cell Line Nuclear Extract (IC50 Data)
(§2) All HDAC assays were performed using acetylated AMC-labeled peptide substrate: • Substrate for isoforms HDAC1, 2, 3, 6, 10, 11 and HeLa nuclear extract assays: Acetylated fluorogenic peptide from p53 residues 379-382 (RHKKAc). • Substrate for isoforms HDAC 4, 5, 7, 9: Fluorogenic Boc-L-Lys(ε-trifluoroacetyl)-AMC. • Substrate for HDAC8 assays: Acetylated fluorogenic peptide from p53 residues 379-382 (RHKAcKAc).
[…] The reactions were carried out in a 96-well microplate for fluorometry in a 50 μl reaction volume. After the deacetylation reaction, Fluor-de-Lys-Developer (BioMol Cat. # KI-105) was added to each well to digest the deacetylated substrate, thus producing the fluorescent signal. The reaction was allowed to develop for 45 minutes at 30° C. with 5% CO2; then the fluorescent signal was measured with an excitation wavelength at 360 nm and an emission wavelength at 460 nm in a microplate-reading fluorometer (GeminiXS; Molecular Devices, Sunnyvale, Calif.). A curve of Deacetylated Standard (Biomol, Cat. # KI-142; made from 100 μM with 1:2 dilution and 10-doses, 6 μl) allowed the conversion of fluorescent signal into micromoles of deacetylated product. All experiments were performed in triplicate. IC50 was calculated by fitting the experimental data to a dose-response curve. DMSO was used as negative control; Trichostatin A (Biomol Cat. # GR-309) was used as positive control inhibitor.

The target in another assay is T2, Human HDAC11 (Homo sapiens, UniProt Q96DB2).
T2 construct: GST (N); purchased BioMol SE-560; host or cells: baculovirus expression system
T2 sequence (Q96DB2 1-347): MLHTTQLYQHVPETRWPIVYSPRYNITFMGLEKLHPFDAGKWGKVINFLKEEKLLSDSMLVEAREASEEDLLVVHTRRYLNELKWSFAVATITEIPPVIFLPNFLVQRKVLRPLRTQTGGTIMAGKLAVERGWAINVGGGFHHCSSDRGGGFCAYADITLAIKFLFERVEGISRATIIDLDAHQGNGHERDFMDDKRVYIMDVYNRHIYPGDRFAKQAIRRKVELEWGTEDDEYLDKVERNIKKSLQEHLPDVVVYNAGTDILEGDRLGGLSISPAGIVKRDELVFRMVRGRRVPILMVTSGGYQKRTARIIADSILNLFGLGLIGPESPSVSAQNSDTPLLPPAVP
Briefly: In vitro HDAC11 inhibition, fluorogenic peptide substrate. It counts as biochemical. Conditions: read-out: IC50 (μM) HDAC-11. As for the experimental part: as §1, §2
(§3) 50 μM of substrate peptide (see ‘substrate peptides’ section above) and an optimal concentration of the corresponding enzyme (see ‘enzymes’ section above) in the assay buffer and 1% final concentration of DMSO were incubated in the presence of gradient concentrations of inhibitors (10-dose IC50 mode with 3-fold serial dilution) at 30° C. for 2 h. The reactions were carried out in a 96-well microplate for fluorometry in a 50 μl reaction volume. After the deacetylation reaction, Fluor-de-Lys-Developer (BioMol Cat. # KI-105) was added to each well to digest the deacetylated substrate, thus producing the fluorescent signal. The reaction was allowed to develop for 45 minutes at 30° C. with 5% CO2; then the fluorescent signal was measured with an excitation wavelength at 360 nm and an emission wavelength at 460 nm in a microplate-reading fluorometer (GeminiXS; Molecular Devices, Sunnyvale, Calif.). A curve of Deacetylated Standard (Biomol, Cat. # KI-142; made from 100 μM with 1:2 dilution and 10-doses, 6 μl) allowed the conversion of fluorescent signal into micromoles of deacetylated product. All experiments were performed in triplicate. IC50 was calculated by fitting the experimental data to a dose-response curve. DMSO was used as negative control; Trichostatin A (Biomol Cat. # GR-309) was used as positive control inhibitor.

The target of another assay is T3, Human HDAC9 (Homo sapiens, UniProt Q9UKV0).
T3 construct: Amino acids 604-1066 with C-terminal His tag, MW=50.7 kDa; His (C); purchased BioMol, Hamburg, Germany; host or cells: baculovirus expression system
T3 sequence (Q9UKV0 604-1066 isoform Q9UKV0-5): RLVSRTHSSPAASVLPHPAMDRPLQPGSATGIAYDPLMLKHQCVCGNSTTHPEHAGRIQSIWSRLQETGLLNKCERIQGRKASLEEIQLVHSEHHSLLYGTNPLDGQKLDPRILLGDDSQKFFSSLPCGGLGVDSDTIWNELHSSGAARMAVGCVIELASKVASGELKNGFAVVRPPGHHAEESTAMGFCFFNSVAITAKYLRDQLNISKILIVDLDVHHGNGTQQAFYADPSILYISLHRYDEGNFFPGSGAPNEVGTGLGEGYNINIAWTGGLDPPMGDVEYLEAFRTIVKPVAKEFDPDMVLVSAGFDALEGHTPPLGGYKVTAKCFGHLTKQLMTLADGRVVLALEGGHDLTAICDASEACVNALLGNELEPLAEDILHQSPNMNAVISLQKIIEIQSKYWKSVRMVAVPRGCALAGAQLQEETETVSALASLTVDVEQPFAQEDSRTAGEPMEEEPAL
Kind of assay: In vitro HDAC9 inhibition, fluorogenic substrate. It counts as biochemical. The conditions noted are these: read-out: IC50 (μM) HDAC-9. As for the experimental part:
as §1, §2, §3

By IC50 is commonly meant the concentration needed to halve the response being measured. Regarding `O=C(CCCCCCNc1c2c(nc3ccccc13)CCCC2)NO` [Example 2, N-hydroxy-7-[(1,2,3,4-tetrahydroacridin-9-yl)amino]heptanamide], the IC50 in assay [1] turned out to be 0.023 µM; at Human HDAC11 it was 0.59 µM; on Human HDAC9 it was 1.57 µM.

Take `O=C(CCCCCCNC(=O)c1c2c(nc3ccccc13)CCCC2)NO` [Example 11, N-[7-(hydroxyamino)-7-oxoheptyl]-1,2,3,4-tetrahydroacridine-9-carboxamide]: the values for the IC50 (in assay [1]; at Human HDAC11; on Human HDAC9) were 0.42 µM, 4.1 µM and 3.17 µM, respectively.

On to `O=C(CCCCCNC(=O)c1c2c(nc3ccccc13)CCCC2)NO` [Example 10, N-[6-(hydroxyamino)-6-oxohexyl]-1,2,3,4-tetrahydroacridine-9-carboxamide], for which the IC50 is 0.85 µM in assay [1] and above 5 µM at Human HDAC11.

In the case of `O=C(CCCCCCNc1c2c(nc3ncccc13)CCCC2)NO` [Example 7, N-hydroxy-7-[(6,7,8,9-tetrahydrobenzo[b][1,8]naphthyridin-5-yl)amino]heptanamide], the IC50 is 0.12 µM in assay [1], 0.69 µM at Human HDAC11 and above 5 µM at Human HDAC9.

For the compound `COc1cccc2c(NCCCCCCC(=O)NO)c3c(nc12)CCCC3` [Example 5, N-hydroxy-7-[(5-methoxy-1,2,3,4-tetrahydroacridin-9-yl)amino]heptanamide], the IC50 in assay [1] was 0.033 µM; on Human HDAC11, 1.04 µM; on Human HDAC9 it was above 5 µM.

Take `O=C(CCCCCCNc1c2c(nc3ccccc13)CCCCC2)NO` [Example 4, N-hydroxy-7-[(7,8,9,10-tetrahydro-6H-cyclohepta[b]quinolin-11-yl)amino]heptanamide]: the figures for the IC50 (in assay [1]; at Human HDAC11; at Human HDAC9) were 0.038 µM, 1.22 µM and above 5 µM, respectively.

As to `O=C(CCCCCNc1c2c(nc3ccccc13)CCCC2)NO` [Example 1, N-hydroxy-6-[(1,2,3,4-tetrahydroacridin-9-yl)amino]hexanamide], the IC50 in assay [1] was found to be 0.066 µM; on Human HDAC11, 2.21 µM; on Human HDAC9 it was 2.47 µM.

`O=C(CCCCCCNc1c2c(nc3ccccc13)CCC2)NO` [Example 3, 7-[(2,3-dihydro-1H-cyclopenta[b]quinolin-9-yl)amino]-N-hydroxyheptanamide]: the values for the IC50 (in assay [1]; at Human HDAC11; on Human HDAC9) were 0.019 µM, 0.44 µM and above 5 µM, respectively.

For `O=C(CCCCCCNc1c2c(nc3cnccc13)CCCC2)NO` [Example 8, N-hydroxy-7-[(6,7,8,9-tetrahydrobenzo[b][1,7]naphthyridin-5-yl)amino]heptanamide], the IC50 in assay [1] is 0.095 µM; at Human HDAC11, 0.6 µM; on Human HDAC9, above 5 µM.
